Marks after values point to notes of the source that are not given here.
Key:
Format in all cases: in vivo
Settings in all cases: 100 = 100% disease control
[1] = tested on: Erysiphe graminis f. sp. tritici; experiment: Test J: wheat powdery mildew on wheat seedlings, sprayed the day before inoculation, visual disease rating
In short: (§1)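 200 ppm run-off spray (500 g/ha equivalent); * = 40 ppm. Vehicle: acetone/water 50/50, 250 ppm Trem® 014.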

Septoria nodorum = experiment: Test F: wheat glume blotch on wheat seedlings, sprayed the day before inoculation, visual disease rating
In short: as §1

Botrytis cinerea = experiment: Test C: tomato Botrytis on tomato seedlings, sprayed the day before inoculation, visual disease rating
In short: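 Tomato seedlings were sprayed until run-off with test suspensions in acetone/water (50/50) carrying 250 ppm polyhydric alcohol ester surfactant. Standard dose was 200 ppm, with 40 ppm for marked entries.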

[2] = tested on: Puccinia recondita f. sp. tritici; experiment: Test I: wheat leaf rust on wheat seedlings, sprayed the day before inoculation, visual disease rating
In short: as §1

[3] = tested on: Puccinia recondita f. sp. tritici; experiment: Test H: wheat leaf rust, test suspension sprayed after inoculation of wheat seedlings, visual disease rating
In short: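 Wheat seedlings inoculated with P. recondita spores, held 24 h saturated at 20 °C, then 2 days in growth chamber at 20 °C; compound suspension (acetone/water with Trem 014) sprayed to run-off afterwards. Rated visually; 200 ppm (≈500 g/ha) unless marked *, which denotes 40 ppm.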

Alternaria solani = experiment: Test D: tomato early blight, sprayed the day before inoculation, visual disease rating
In short: as §1

Septoria tritici = experiment: Test G: wheat leaf blotch on wheat seedlings, sprayed the day before inoculation, visual disease rating
In short: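 Wheat seedlings were sprayed with compound suspensions, 200 ppm unless starred (40 ppm). After next-day spore inoculation, plants spent 48 h saturated at 24° C, then 19 days at 20° C, when disease was rated visually.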

[4] = 200 ppm, 0 = no control relative to controls

Row | SMILES | Test J disease control rating [1, 4] | Test F disease control rating (Septoria nodorum; [4]) | Test C disease control rating (Botrytis cinerea; [4]) | Test I disease control rating [2, 4] | Test H disease control rating [3, 4] | Test D disease control rating (Alternaria solani; [4]) | Test G disease control rating (Septoria tritici; [4]) | Test J disease control rating ([1]; 40 ppm (marked *)) | Test F disease control rating (Septoria nodorum; 40 ppm (marked *)) | Test C disease control rating (Botrytis cinerea; 40 ppm (marked *)) | Test I disease control rating ([2]; 40 ppm (marked *)) | Test H disease control rating ([3]; 40 ppm (marked *)) | Test D disease control rating (Alternaria solani; 40 ppm (marked *)) | Test G disease control rating (Septoria tritici; 40 ppm (marked *))
1 | CNc1nc(Cl)c(-c2c(F)cc(OC)cc2F)n1-c1ccc(Cl)cc1 [compound 692] | 79% | 0% | 100% | 0% | 8% | 70% | 99% | – | – | – | – | – | – | –
2 | Cc1nc(Cl)n(-c2ccc(Cl)nc2)c1-c1c(F)cccc1F [compound 693] | 100% | 99% | 100% | 100% | 100% | 100% | 99% | – | – | – | – | – | – | –
3 | COc1cc(F)c(-c2c(Cl)nc(SC)n2-c2ccc(C)cc2)c(F)c1 [compound 695] | 96% | 97% | 100% | 99% | 97% | 99% | 99% | – | – | – | – | – | – | –
4 | N#Cc1ccc(F)c(-c2cnc(Cl)n2-c2ccc(Cl)nc2)c1F [compound 697] | 93% | 0% | 100% | 19% | 8% | 91% | 98% | – | – | – | – | – | – | –
5 | COc1ccc(-c2c(Cl)nc(Cl)n2-c2ccc(Cl)cc2Cl)cc1 [compound 698] | 56% | 0% | 99% | 83% | 0% | 0% | 99% | – | – | – | – | – | – | –
6 | COc1cc(F)c(-c2cnc(Cl)n2-c2ccc(C(F)(F)F)nc2)c(F)c1 [compound 699] | 99% | 0% | 100% | 41% | 0% | 99% | 99% | – | – | – | – | – | – | –
7 | Cc1ncc(-c2ccc(Cl)cc2)n1-c1c(F)cc([N+](=O)[O-])cc1F [compound 700] | – | – | – | – | – | – | – | 0* % | 0* % | 93* % | 0* % | 0* % | 0* % | 53* %
8 | N#Cc1ccc(F)c(-c2c(Cl)nc(Br)n2-c2ccc(Cl)nc2)c1F [compound 701] | 95% | 91% | 100% | 100% | 7% | 100% | 99% | – | – | – | – | – | – | –
9 | CCOc1cc(F)c(-c2c(Cl)ncn2-c2ccc(F)cc2)c(F)c1 [compound 702] | 99% | 99% | 100% | 86% | 59% | 100% | 99% | – | – | – | – | – | – | –
10 | CCOc1cc(F)c(-c2c(Cl)ncn2-c2cccc(F)c2)c(F)c1 [compound 703] | 97% | 100% | 100% | 98% | 39% | 100% | 99% | – | – | – | – | – | – | –
11 | COc1cc(F)c(-c2c(Cl)nc(Br)n2-c2ccc(OC)nc2)c(F)c1 [compound 705] | 100% | 99% | 99% | 100% | 100% | 100% | 99% | – | – | – | – | – | – | –
12 | COc1cc(F)c(-c2c(Br)nc(Cl)n2-c2ccc(C(F)(F)F)nc2)c(F)c1 [compound 706] | 100% | 0% | 57% | 86% | 25% | 100% | 99% | – | – | – | – | – | – | –
13 | Cc1nc(Cl)c(-c2ccc(Cl)cc2)n1-c1c(F)cc([N+](=O)[O-])cc1F [compound 708] | 89% | 82% | 100% | 80% | 7% | 0% | 99% | – | – | – | – | – | – | –
14 | COc1ccc(F)c(-c2c(Cl)nc(Cl)n2-c2ccc(Cl)nc2)c1F [compound 709] | 100% | 100% | 100% | 100% | 100% | 100% | 99% | – | – | – | – | – | – | –
15 | COc1cc(F)c(-c2c(Br)nc(Cl)n2-c2ccc(OC)nc2)c(F)c1 [compound 710] | 98% | 100% | 100% | 100% | 99% | 100% | 98% | – | – | – | – | – | – | –
16 | Fc1cccc(F)c1-c1c(Cl)nc(Br)n1-c1ccc(Cl)nc1 [compound 711] | 99% | 99% | 100% | 99% | 98% | 100% | 99% | – | – | – | – | – | – | –
17 | COc1cc(F)c(-n2c(Cl)nc(CCl)c2-c2cccc(F)c2)c(F)c1 [compound 712] | – | – | – | – | – | – | 95% | 61* % | 0* % | 100* % | 86* % | 7* % | 57* % | –
18 | COc1cc(F)c(-c2c(Cl)nc(C)n2-c2ccc(OC)nc2)c(F)c1 [compound 714] | 100% | 100% | 100% | 100% | 100% | 100% | 99% | – | – | – | – | – | – | –
19 | Cc1nc(Br)n(-c2ccc(Cl)nc2)c1-c1c(F)ccc(C#N)c1F [compound 715] | 73% | 78% | 100% | 99% | 100% | 100% | 99% | – | – | – | – | – | – | –
20 | Cc1nc(Cl)n(-c2ccc(Cl)nc2)c1-c1c(F)ccc(C#N)c1F [compound 716] | 99% | 95% | 100% | 99% | 100% | 100% | 100% | – | – | – | – | – | – | –

— patent US20110045101A1, “FUNGICIDAL SUBSTITUTED AZOLES” (E.I. Du Pont De Nemours and Company, priority 2009, published 2011)
